Results: patent publication US20240000806A1, “METHODS AND MATERIALS FOR INHIBITING CB1 ACTIVITY” (University of Pittsburgh - Of the Commonwealth System of …, priority 2020, published 2024)

target: CB1 (CNR1) (Homo sapiens, UniProt P21554); assay: cAMP CNR1 Hunter cell line antagonist assay (CB1 assay); format: cell-based; details: antagonist mode, cAMP CNR1 Hunter cells, EC80 agonist; read-out: CB1 assay, Efficacy (IC50)
Method: cAMP CNR1 Hunter cell line (Eurofins DiscoveryX) were expanded from freezer stocks and seeded in a total volume of 20 μL into white walled, 384-well microplates and incubated at 37° C. for the appropriate time prior to testing. For antagonist determination, cell media was aspirated from cells and replaced with 10 μL 1:1 HBSS/Hepes:cAMP XS+Ab reagent. 5 μL of 4× compound was added to the cells and incubated at 37° C. for 30 minutes. 5 μL of 4× EC80 agonist was added to cells and incubated at 37° C. for 30 minutes. After appropriate compound incubation, assay signal was generated through incubation with 20 μL cAMP XS+ED/CL lysis cocktail for one hour followed by incubation with 20 μL cAMP XS+EA reagent for three hours at room temperature. Microplates were read following signal generation with a PerkinElmer Envision™ instrument for chemiluminescent signal detection. Compound activity (IC50) was analyzed using CBIS data analysis suite (ChemInnovation, CA).

Chain of CB1 (CNR1) (P21554 whole entry): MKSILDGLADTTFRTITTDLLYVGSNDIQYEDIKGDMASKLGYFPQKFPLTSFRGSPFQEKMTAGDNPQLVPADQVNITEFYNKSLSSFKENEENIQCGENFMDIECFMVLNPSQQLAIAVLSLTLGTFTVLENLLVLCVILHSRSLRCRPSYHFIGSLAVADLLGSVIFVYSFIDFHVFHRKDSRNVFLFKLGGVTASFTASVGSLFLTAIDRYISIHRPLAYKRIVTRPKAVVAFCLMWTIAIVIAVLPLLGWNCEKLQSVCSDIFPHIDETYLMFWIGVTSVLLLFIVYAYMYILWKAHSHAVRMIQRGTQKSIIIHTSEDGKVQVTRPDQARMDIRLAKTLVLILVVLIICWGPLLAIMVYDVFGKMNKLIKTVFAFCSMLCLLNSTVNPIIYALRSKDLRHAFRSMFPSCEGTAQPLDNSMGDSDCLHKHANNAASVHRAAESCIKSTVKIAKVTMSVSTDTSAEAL

IC50 [µM]	SMILES
1 to 25	CC1Oc2cc(S(=O)(=O)NCc3ccc(C(F)(F)F)cc3)c(Br)cc2NC1=O (stereo not shown) [BC19358]
≥ 25	CC1Oc2c(cc(Br)cc2S(=O)(=O)Nc2ccc(F)cc2Cl)N(C)C1=O (stereo not shown) [BC19908]
1 to 25	CCC1Oc2cc(S(=O)(=O)Nc3ccc(C)c(F)c3)c(Br)cc2N(C)C1=O (stereo not shown) [BC19924]
≥ 25	CCC1Oc2cc(S(=O)(=O)Nc3ccc(F)c(F)c3)c(Cl)cc2NC1=O (stereo not shown) [BC19735]
< 1	Cc1ccc(Cl)cc1NS(=O)(=O)c1cc2c(cc1Cl)NC(=O)CO2 [BC19162]
≥ 25	CCC1Oc2c(cc(Br)cc2S(=O)(=O)Nc2cccc(Cl)c2)NC1=O (stereo not shown) [BC19232]
1 to 25	CCC1Oc2c(cc(Cl)cc2S(=O)(=O)Nc2ccc(OC(F)(F)F)cc2)NC1=O (stereo not shown) [BC19734]
≥ 25	CCC1Oc2c(cc(Cl)cc2S(=O)(=O)Nc2ccc(OC)c(Cl)c2)NC1=O (stereo not shown) [BC19744]
≥ 25	CS(=O)(=O)c1cc2c(c(S(=O)(=O)Nc3ccc(F)cc3)c1)OCC(=O)N2 [BC19430]
1 to 25	O=C1NCCOc2c1cc(Br)cc2S(=O)(=O)Nc1cccc(F)c1 [BC19610]
≥ 25	N#Cc1ccc(NS(=O)(=O)c2cc(Br)cc3c2OCCNC3=O)cc1 [BC19615]
1 to 25	CCC1Oc2c(cc(Cl)cc2S(=O)(=O)Nc2cccc(Cl)c2)NC1=O (stereo not shown) [BC19752]
≥ 25	Cc1ccc(NS(=O)(=O)c2cc3c(cc2Br)N(C)C(=O)C(C)O3)cc1Cl (stereo not shown) [BC19797]
≥ 25	CCS(=O)(=O)c1cc2c(c(S(=O)(=O)Nc3ccc(Cl)cc3)c1)OCC(=O)N2 [BC19491]
≥ 25	CC1Oc2c(cc(Br)cc2S(=O)(=O)Nc2cccc(F)c2)N(C)C1=O (stereo not shown) [BC19902]
≥ 25	COc1ccc(NS(=O)(=O)c2cc3c(cc2Br)N(C)C(=O)C(C)O3)cc1 (stereo not shown) [BC19795]
1 to 25	CCC1Oc2cc(S(=O)(=O)Nc3ccc(Cl)cc3)c(Cl)cc2NC1=O (stereo not shown) [BC19739]
1 to 25	CC1Oc2c(cc(Cl)cc2S(=O)(=O)Nc2cccc(Cl)c2)NC1=O (stereo not shown) [BC19716]

IC50 [µM]	SMILES
1 to 25	CCc1ccc(NS(=O)(=O)c2cc3c(cc2Br)NC(=O)C(CC(C)C)O3)cc1 (stereo not shown) [BC19764]
1 to 25	CCC1Oc2cc(S(=O)(=O)Nc3ccccc3)c(Cl)cc2NC1=O (stereo not shown) [BC19737]
1 to 25	CCC1Oc2c(cc(Cl)cc2S(=O)(=O)Nc2ccc(Cl)cc2)NC1=O (stereo not shown) [BC19740]
≥ 25	CCC1Oc2c(cc(Br)cc2S(=O)(=O)NCc2ccc(C(F)(F)F)cc2)NC1=O (stereo not shown) [BC19377]
1 to 25	CCC1Oc2c(cc(Br)cc2S(=O)(=O)NC2CCC(C(C)(C)C)CC2)NC1=O (stereo not shown) [BC19379]
< 1	O=C1COc2c(cc(Cl)cc2S(=O)(=O)Nc2ccc(Cl)cc2)N1 [BC19169]
≥ 25	O=C1COc2c(cc(Br)cc2S(=O)(=O)NC2CCC(O)CC2)N1 (stereo not shown) [BC19381]
≥ 25	O=C1NCCOc2c1cc(Br)cc2S(=O)(=O)Nc1ccc(Cl)cc1 [BC19603]
≥ 25	O=C1CCOc2c(cc(Br)cc2S(=O)(=O)Nc2ccc(Cl)cc2)N1 [BC19685]
≥ 25	COc1ccc(NS(=O)(=O)c2cc3c(cc2Br)N(C)C(=O)C(C)O3)cc1Cl (stereo not shown) [BC19919]
≥ 25	CCc1cccc(NS(=O)(=O)c2cc(S(=O)(=O)CC)cc3c2OCC(=O)N3)c1 [BC19439]
1 to 25	CCc1ccc(NS(=O)(=O)c2cc(Cl)cc3c2OC(C)C(=O)N3)cc1 (stereo not shown) [BC19703]
≥ 25	CNC(=O)N1c2cc(S(=O)(=O)N3CCCC3)ccc2NC(=O)C1C (stereo not shown) [BC19236]
1 to 25	CC1Oc2cc(S(=O)(=O)Nc3ccc(F)c(F)c3)c(Br)cc2N(C)C1=O (stereo not shown) [BC19788]
≥ 25	O=C1CCOc2c(cc(Br)cc2S(=O)(=O)Nc2ccc(OC(F)(F)F)cc2)N1 [BC19648]
≥ 25	CC1Oc2cc(S(=O)(=O)Nc3ccc(F)cc3)c(Br)cc2N(C)C1=O (stereo not shown) [BC19910]
≥ 25	CCC1Oc2c(cc(Br)cc2S(=O)(=O)Nc2ccc(C(C)C)cc2)N(C)C1=O (stereo not shown) [BC19933]
1 to 25	CCC1Oc2cc(S(=O)(=O)Nc3ccc(C)c(Cl)c3)c(Cl)cc2NC1=O (stereo not shown) [BC19745]

Continued, compound first:

SMILES	IC50 [µM]
CC(=O)N1CC(=O)Nc2ccc(S(=O)(=O)N3CCCC3)cc21 [BC19295]	≥ 25
CCC1Oc2cc(S(=O)(=O)Nc3ccc(F)cc3Cl)c(Cl)cc2NC1=O (stereo not shown) [BC19755]	1 to 25
CCC1Oc2c(cc(Br)cc2S(=O)(=O)NCc2ccc(OC(F)(F)F)cc2)NC1=O (stereo not shown) [BC19375]	1 to 25
CCC1Oc2cc(S(=O)(=O)Nc3ccc(C)c(Cl)c3)c(Br)cc2N(C)C1=O (stereo not shown) [BC19938]	≥ 25
O=C1CCOc2cc(S(=O)(=O)Nc3ccccc3)c(Br)cc2N1 [BC19689]	≥ 25
CCc1cccc(NS(=O)(=O)c2cc(Br)cc3c2OC(CC(C)C)C(=O)N3)c1 (stereo not shown) [BC19771]	1 to 25
CC1Oc2cc(S(=O)(=O)Nc3ccc(C#N)cc3)c(Br)cc2N(C)C1=O (stereo not shown) [BC19920]	1 to 25
CCC1Oc2cc(S(=O)(=O)Nc3ccc(OC)c(Cl)c3)c(Cl)cc2NC1=O (stereo not shown) [BC19743]	≥ 25
CCC1Oc2c(cc(Br)cc2S(=O)(=O)Nc2ccc(Cl)cc2)NC1=O (stereo not shown) [BC19290]	≥ 25
CC1Oc2cc(S(=O)(=O)Nc3ccc(C(C)C)cc3)c(Cl)cc2NC1=O (stereo not shown) [BC19704]	≥ 25
O=C1COc2cc(S(=O)(=O)Nc3ccc(Cl)cc3)c(Cl)cc2N1 [BC19133]	< 1
COc1ccc(NS(=O)(=O)c2cc(Br)cc3c2OCCNC3=O)cc1Cl [BC19614]	≥ 25
CCC1Oc2cc(S(=O)(=O)Nc3ccc(F)c(F)c3)c(Br)cc2N(C)C1=O (stereo not shown) [BC19926]	≥ 25
CCC1Oc2cc(S(=O)(=O)Nc3ccc(C)cc3)c(Cl)cc2NC1=O (stereo not shown) [BC19753]	1 to 25
CCC1Oc2cc(S(=O)(=O)NC3CCC(O)CC3)c(Br)cc2NC1=O (stereo not shown) [BC19372]	≥ 25
CCc1ccc(NS(=O)(=O)c2cc(Br)cc3c2OCCNC3=O)cc1 [BC19604]	1 to 25
O=C1COc2c(cc(Br)cc2S(=O)(=O)Nc2ccc(F)c(F)c2)N1 [BC19177]	1 to 25
CS(=O)(=O)c1cc2c(c(S(=O)(=O)Nc3ccc(Cl)cc3)c1)OCC(=O)N2 [BC19483]	≥ 25
Cc1c(Cl)cc2c(c1S(=O)(=O)Nc1ccc(Cl)cc1)OCC(=O)N2 [BC19434]	≥ 25
CCc1cccc(NS(=O)(=O)c2cc(S(C)(=O)=O)cc3c2OCC(=O)N3)c1 [BC19487]	≥ 25
CCC1Oc2cc(S(=O)(=O)Nc3ccc(C)c(F)c3)c(Cl)cc2NC1=O (stereo not shown) [BC19212]	1 to 25
CCc1ccc(NS(=O)(=O)c2cc3c(cc2Cl)NC(=O)C(C)O3)cc1 (stereo not shown) [BC19702]	≥ 25
CCS(=O)(=O)c1cc2c(c(S(=O)(=O)Nc3ccc(F)c(F)c3)c1)OCC(=O)N2 [BC19421]	≥ 25
CCc1cccc(NS(=O)(=O)c2cc3c(cc2Br)NC(=O)CCO3)c1 [BC19657]	≥ 25
CC1Oc2c(cc(Cl)cc2S(=O)(=O)Nc2ccc(F)cc2F)NC1=O (stereo not shown) [BC19710]	≥ 25

SMILES	IC50 [µM]
COc1ccc(NS(=O)(=O)c2cc(Br)cc3c2OCC(=O)N3)cc1Cl [BC19171]	1 to 25
O=C1CCOc2cc(S(=O)(=O)Nc3ccc(OC(F)(F)F)cc3)c(Br)cc2N1 [BC19652]	≥ 25
CC1Oc2c(cc(Br)cc2S(=O)(=O)Nc2ccc(OC(F)(F)F)cc2)N(C)C1=O (stereo not shown) [BC19783]	1 to 25
CC(C)(C)C1CCC(NS(=O)(=O)c2cc3c(cc2Br)NC(=O)CO3)CC1 (stereo not shown) [BC19388]	≥ 25
CC(C)CC1Oc2cc(S(=O)(=O)Nc3ccc(F)cc3)c(Br)cc2NC1=O (stereo not shown) [BC19782]	≥ 25
Cc1ccc(NS(=O)(=O)c2cc3c(cc2Br)NC(=O)CCO3)cc1F [BC19653]	≥ 25
CCC1Oc2c(cc(Br)cc2S(=O)(=O)NC2CCCCC2)NC1=O (stereo not shown) [BC19233]	≥ 25
CC1Oc2c(cc(Cl)cc2S(=O)(=O)Nc2ccc(F)c(F)c2)NC1=O (stereo not shown) [BC19699]	1 to 25
CCNS(=O)(=O)c1cc2c(cc1Cl)NC(=O)C(C)O2 (stereo not shown) [BC19209]	≥ 25
CC1Oc2c(cc(Br)cc2S(=O)(=O)N2CCOCC2)NC1=O (stereo not shown) [BC19226]	≥ 25
CCS(=O)(=O)c1cc2c(c(S(=O)(=O)Nc3ccc(F)cc3)c1)OCC(=O)N2 [BC19443]	≥ 25
CC1Oc2cc(S(=O)(=O)Nc3ccc(F)cc3Cl)c(Br)cc2N(C)C1=O (stereo not shown) [BC19907]	≥ 25
Cc1cc2c(cc1S(=O)(=O)Nc1ccc(Cl)cc1)OCC(=O)N2 [BC19131]	< 1
CCC1Oc2c(cc(Br)cc2S(=O)(=O)Nc2ccc(Cl)cc2)N(C)C1=O (stereo not shown) [BC19929]	≥ 25
CCc1ccc(NS(=O)(=O)c2cc3c(cc2Cl)NC(=O)C(CC)O3)cc1 (stereo not shown) [BC19741]	1 to 25
CCS(=O)(=O)c1cc2c(c(S(=O)(=O)Nc3cccc(Cl)c3)c1)OCC(=O)N2 [BC19441]	≥ 25
O=C1CCOc2cc(S(=O)(=O)Nc3ccc(F)cc3)c(Br)cc2N1 [BC19660]	≥ 25
CCc1ccc(NS(=O)(=O)c2cc(Br)cc3c2OC(CC(C)C)C(=O)N3)cc1 (stereo not shown) [BC19763]	1 to 25
Cc1ccc(NS(=O)(=O)c2cc(S(C)(=O)=O)cc3c2OCC(=O)N3)cc1F [BC19423]	≥ 25
CC(C)c1ccc(NS(=O)(=O)c2cc(S(C)(=O)=O)cc3c2OCC(=O)N3)cc1 [BC19424]	≥ 25
CC1Oc2c(cc(Br)cc2S(=O)(=O)Nc2ccc(C(C)C)cc2)N(C)C1=O (stereo not shown) [BC19793]	≥ 25
CCOc1ccc(NS(=O)(=O)c2cc3c(cc2Cl)NC(=O)C(C)O3)cc1 (stereo not shown) [BC19281]	≥ 25
CCS(=O)(=O)c1cc2c(c(S(=O)(=O)Nc3cccc(F)c3)c1)OCC(=O)N2 [BC19440]	≥ 25
CC(C)c1ccc(NS(=O)(=O)c2cc(Cl)cc3c2OCC(=O)N3)cc1 [BC19174]	≥ 25
